{"source": "patent US20200038383A1", "about": "“IMMEDIATE-RELEASE ABUSE DETERRENT CO[…] MEDICAMENTS FOR TREATING PAIN, ADD, ADHD AND OTHER SYNDROMES OR DISORDERS” (KEMPHARM, INC., priority 2016, published 2020)", "key": {"[1]": {"test": "Chemical stability (hydrolysis) of hydrocodone conjugates in water", "type": "physicochemical", "conditions": "one hour", "description": "Exemplary conjugates of hydrocodone of the present technology and control test conjugates not of the present technology were tested for chemical stability under conditions similar to what a potential drug abuser may use to “extract” the active portion of the molecule, for example dissolved in water, hydrochloric acid or sodium bicarbonate either at ambient temperature or 100° C."}, "[2]": {"test": "Hydrolysis to hydrocodone in 1 N HCl", "conditions": "1 hour"}, "[3]": {"test": "Oral PK of hydrocodone conjugates in rats (plasma hydrocodone, hydromorphone, intact conjugate by LC-MS/MS)"}, "[4]": {"test": "Oral dose escalation study in rats", "conditions": "oral solutions, escalating dosages"}, "[5]": {"test": "Tamper resistance study (extraction methods, HPLC)", "type": "physicochemical", "excerpt": "Certain prodrug conjugates of the present technology were exposed to various commonly applied “extraction methods” to test for hydrolysis and/or decomposition of the prodrug."}, "Hydrolysis in 5% NaHCO3": {"test": "Hydrolysis in 5% NaHCO3", "type": "physicochemical", "conditions": "one hour"}, "[6]": {"test": "Water solubility / feasibility of intravenous administration"}, "[7]": {"test": "Intranasal PK of hydrocodone conjugates in rats", "conditions": "equivalent to 2 mg/kg hydrocodone freebase"}, "Oral PK in dogs": {"test": "Oral PK in dogs", "conditions": "equivalent to 2 mg/kg freebase hydrocodone"}, "[8]": {"conditions": "ambient temperature (about 20° C.)"}, "[9]": {"conditions": "equivalent to 2 mg/kg hydrocodone freebase"}, "[10]": {"conditions": "equivalent to 2 mg/kg freebase hydrocodone"}}, "note": "Where no end group is shown, it is not given here."}
{"molecule": "2-aminobenzoate-hydrocodone [Compound 2-Abz-HC]", "values": [{"measurement": "amount of conjugate hydrolyzed in water", "setting": "[1]; 100° C. oil bath", "value": 0, "unit": "%"}, {"measurement": "amount of conjugate hydrolyzed in water", "setting": "[1]; [8]", "value": 0, "unit": "%"}, {"measurement": "%-release in 1 N HCl", "setting": "[2]; 100° C. oil bath", "value": 16, "unit": "%"}, {"measurement": "%-release in 1 N HCl", "setting": "[2]; ambient (~20° C.)", "value": 0, "unit": "%"}, {"measurement": "hydrocodone AUC, lower than Hydrocodone.BT", "setting": "[3]; [9]", "value": "approximately 35%"}, {"measurement": "hydrocodone Cmax, lower than Hydrocodone.BT", "setting": "[3]; [9]", "value": "~60", "unit": "%"}, {"measurement": "hydrocodone Tmax compared with Hydrocodone.BT", "setting": "[3]; [9]", "value": "approximately four times longer"}, {"measurement": "hydromorphone AUC, lower than Hydrocodone.BT", "setting": "[3]; [9]", "value": "approximately 25%"}, {"measurement": "hydromorphone Cmax, lower than Hydrocodone.BT", "setting": "[3]; [9]", "value": "~50", "unit": "%"}]}
{"molecule": "CC(=O)Oc1ccccc1C(=O)OC1=CCC2C3Cc4ccc(OC(=O)c5ccccc5OC(C)=O)c5c4C2(CCN3C)C1O5", "note": "(stereo not drawn) [3,6-di-aspirin-HM, 3,6,-di-aspirin-hydromorphone]", "values": [{"measurement": "exposure (AUC) to hydromorphone at doses above the therapeutic level", "setting": "[4]", "value": "reached a plateau"}, {"measurement": "stability under commonly applied extraction methods", "setting": "[5]", "value": "chemically stable"}, {"measurement": "Release of hydromorphone (as %-AUC by HPLC)", "setting": "[5]; 1 N HCl, ambient temperature, 30 min.", "value": 0, "unit": "%"}, {"measurement": "Release of hydromorphone (as %-AUC by HPLC)", "setting": "[5]; 1 N HCl, ambient temperature, 60 min.", "value": 0, "unit": "%"}, {"measurement": "Release of hydromorphone (as %-AUC by HPLC)", "setting": "[5]; 1 N NaOH, ambient temperature, 30 min.", "value": 1, "unit": "%"}, {"measurement": "Release of hydromorphone (as %-AUC by HPLC)", "setting": "[5]; 1 N NaOH, ambient temperature, 60 min.", "value": 1, "unit": "%"}, {"measurement": "Release of hydromorphone (as %-AUC by HPLC)", "setting": "[5]; 4 N NaOH, ambient temperature, 30 min.", "value": 1, "unit": "%"}, {"measurement": "Release of hydromorphone (as %-AUC by HPLC)", "setting": "[5]; 4 N NaOH, ambient temperature, 60 min.", "value": 6, "unit": "%"}, {"measurement": "Release of hydromorphone (as %-AUC by HPLC)", "setting": "[5]; 5% Acetic acid, ambient temperature, 30 min.", "value": 0, "unit": "%"}, {"measurement": "Release of hydromorphone (as %-AUC by HPLC)", "setting": "[5]; 5% Acetic acid, ambient temperature, 60 min.", "value": 0, "unit": "%"}, {"measurement": "Release of hydromorphone (as %-AUC by HPLC)", "setting": "[5]; Glacial acetic acid, ambient temperature, 30 min.", "value": 0, "unit": "%"}, {"measurement": "Release of hydromorphone (as %-AUC by HPLC)", "setting": "[5]; Glacial acetic acid, ambient temperature, 60 min.", "value": 0, "unit": "%"}, {"measurement": "Release of hydromorphone (as %-AUC by HPLC)", "setting": "[5]; Sat. NaHCO3, ambient temperature, 30 min.", "value": 0, "unit": "%"}, {"measurement": "Release of hydromorphone (as %-AUC by HPLC)", "setting": "[5]; Sat. NaHCO3, ambient temperature, 60 min.", "value": 0, "unit": "%"}, {"measurement": "Release of hydromorphone (as %-AUC by HPLC)", "setting": "[5]; Water, ambient temperature, 30 min.", "value": 0, "unit": "%"}, {"measurement": "Release of hydromorphone (as %-AUC by HPLC)", "setting": "[5]; Water, ambient temperature, 60 min.", "value": 0, "unit": "%"}]}
{"molecule": "COc1ccc(C(=O)OC2=CC[C@H]3[C@H]4Cc5ccc(OC)c6c5[C@@]3(CCN4C)C2O6)cc1O", "note": "(stereo partly drawn) [3-OH-4-MeO-Bz-HC]", "values": [{"measurement": "%-release in 5% NaHCO3", "setting": "Hydrolysis in 5% NaHCO3; 100° C. oil bath", "value": 36, "unit": "%"}, {"measurement": "%-release in 5% NaHCO3", "setting": "Hydrolysis in 5% NaHCO3; ambient (~20° C.)", "value": 0, "unit": "%"}, {"measurement": "solubility in water (intravenous administration at oral equivalent doses)", "setting": "[6]", "value": "hydrophobic"}, {"measurement": "%-release in 1 N HCl", "setting": "[2]; 100° C. oil bath", "value": 35, "unit": "%"}, {"measurement": "%-release in 1 N HCl", "setting": "[2]; ambient (~20° C.)", "value": 0, "unit": "%"}]}
{"molecule": "COc1ccc2c3c1OC1C(OC(=O)CCCCC(=O)O)=CC[C@H]4[C@@H](C2)N(C)CC[C@]314", "note": "(stereo partly drawn) [Adipate-HC]", "values": [{"measurement": "%-release in 5% NaHCO3", "setting": "Hydrolysis in 5% NaHCO3; 100° C. oil bath", "value": 100, "unit": "%"}, {"measurement": "%-release in 5% NaHCO3", "setting": "Hydrolysis in 5% NaHCO3; ambient (~20° C.)", "value": 3, "unit": "%"}, {"measurement": "solubility in water (intravenous administration at oral equivalent doses)", "setting": "[6]", "value": "water soluble"}, {"measurement": "%-release in 1 N HCl", "setting": "[2]; 100° C. oil bath", "value": 100, "unit": "%"}, {"measurement": "%-release in 1 N HCl", "setting": "[2]; ambient (~20° C.)", "value": 13, "unit": "%"}, {"measurement": "AUC for hydromorphone released from Adipate-HC, higher than Bz-HC (sentence on hydrocodone plasma concentrations, FIG. 3)", "setting": "[7]", "value": "approximately 280%"}, {"measurement": "Cmax for hydromorphone released from Adipate-HC, higher than Bz-HC (sentence on hydrocodone plasma concentrations, FIG. 3)", "setting": "[7]", "value": "~60", "unit": "%"}, {"measurement": "hydromorphone AUC, higher than Bz-HC (FIG. 4)", "setting": "[7]", "value": "approximately 750%"}, {"measurement": "hydromorphone Cmax, higher than Bz-HC (FIG. 4)", "setting": "[7]", "value": "~660", "unit": "%"}]}
{"molecule": "COc1ccc2c3c1OC1C(OC(=O)c4ccccc4)=CCC4C(C2)N(C)CCC314", "note": "(stereo not drawn) [Bz-HC, benzhydrocodone]", "values": [{"measurement": "AUC for intact Bz-HC as % of the AUC for hydrocodone", "setting": "Oral PK in dogs", "value": "approximately 10%"}, {"measurement": "solubility in water (intravenous administration at oral equivalent doses)", "setting": "[6]", "value": "hydrophobic"}, {"measurement": "water solubility (or solubility in PBS)", "setting": "[6]; 0.30 mg/kg close to the maximum intravenous dose in rats", "value": "poor"}, {"measurement": "maximum plasma concentrations of hydromorphone versus dose", "setting": "[3]; doses above 2.00 mg/kg", "value": "did not significantly change"}, {"measurement": "exposures (AUC) to hydrocodone and hydromorphone versus dose", "setting": "[3]; doses between 0.25 and 4.00 mg/kg", "value": "fairly linear"}, {"measurement": "AUC for intact Bz-HC as % of the AUC for hydrocodone", "setting": "[3]; [10]", "value": "approximately 10%"}, {"measurement": "AUC for intact Bz-HC as % of the AUC for hydromorphone", "setting": "[3]; [10]", "value": "~3", "unit": "%"}, {"measurement": "hydrocodone Cmax compared with Hydrocodone.BT", "setting": "[3]; [9]", "value": "approximately equal"}]}
{"molecule": "COc1ccc(C(=O)OC2=CC[C@H]3[C@H]4Cc5ccc(OC)c6c5[C@@]3(CCN4C)C2O6)cc1", "note": "(stereo partly drawn) [Compound 4-MeO-Bz-HC]", "values": [{"measurement": "solubility in water (intravenous administration at oral equivalent doses)", "setting": "[6]", "value": "hydrophobic"}, {"measurement": "amount of conjugate hydrolyzed in water", "setting": "[1]; 100° C. oil bath", "value": 0, "unit": "%"}, {"measurement": "amount of conjugate hydrolyzed in water", "setting": "[1]; [8]", "value": 0, "unit": "%"}]}
{"molecule": "COc1ccc2c3c1OC1C(OC(=O)COCC(=O)O)=CC[C@H]4[C@@H](C2)N(C)CC[C@]314", "note": "(stereo partly drawn) [Diglycolate-HC, reference compound]", "values": [{"measurement": "solubility in water (intravenous administration at oral equivalent doses)", "setting": "[6]", "value": "water soluble"}]}
{"molecule": "COc1ccc2c3c1OC1C(OC(=O)c4ccc5c(c4)OCO5)=CC[C@H]4[C@@H](C2)N(C)CC[C@]314", "note": "(stereo partly drawn) [Piperonylate-HC]", "values": [{"measurement": "solubility in water (intravenous administration at oral equivalent doses)", "setting": "[6]", "value": "hydrophobic"}]}
{"molecule": "Tyr-Tyr-Phe-Phe-Ile-Hydrocodone (YYFFI-hydrocodone) [YYFFI-HC]", "values": [{"measurement": "%-release in 5% NaHCO3", "setting": "Hydrolysis in 5% NaHCO3; 100° C. oil bath", "value": 70, "unit": "%"}, {"measurement": "%-release in 5% NaHCO3", "setting": "Hydrolysis in 5% NaHCO3; ambient (~20° C.)", "value": 0, "unit": "%"}]}
